# Assay results: ChEMBL document CHEMBL3507680, “University of Dundee, Gates Library screen for HepG2 cell viability”
# Assay: Human HepG2 cell viability assay in 384 well format
# Type: toxicity, cell-based
# Design: dose 125 nL, time 70.5 hour; cytotoxicity at 70.5 h: concentration not given beside the values
# Conditions: HepG2 cells, read-out: Inhibition
smiles,measurement,value
CC/C=C(/C)C(=O)NCc1ccnc(OC)c1,cytotoxicity at 70.5 h,-8.93%
Cc1nc(N2CC[C@@H](c3ccc4ccccc4c3)[C@H](O)C2)no1,cytotoxicity at 70.5 h,3.2%
c1cnc(N2CCOCC3(CNCCO3)C2)nc1 (stereo not drawn),cytotoxicity at 70.5 h,15.5%
O=C(Nc1cccc(N2CCN(CC3CC3)CC2)c1)C1CCOC1 (stereo not drawn),cytotoxicity at 70.5 h,-4.69%
CN(Cc1ccccc1)C(=O)CN1CCCC(Cn2cncn2)C1 (stereo not drawn),cytotoxicity at 70.5 h,-7.31%
Cc1ccc(CN2CC3(CCNCC3)CCC2=O)c(F)c1F,cytotoxicity at 70.5 h,-0.751%
COCC1CC2(CCN(C(=O)c3cncc(C)c3)CC2)CO1 (stereo not drawn),cytotoxicity at 70.5 h,9.94%
CCCN1CCCn2c(nc(CNC(=O)c3ccsc3)cc2=O)C1,cytotoxicity at 70.5 h,-3.68%
Cn1nc(CN2CCCC2)c2c1CN(C(=O)Nc1cccc(F)c1)CC2,cytotoxicity at 70.5 h,-7.05%
COc1ncccc1CNC(=O)C1=NN(c2ccccc2)C(=O)CN1,cytotoxicity at 70.5 h,0.82%
CC(C)COc1cncc(NCC(O)c2ccco2)n1 (stereo not drawn),cytotoxicity at 70.5 h,33.1%
Cc1nc(C2CCCN(C(=O)Cn3ccccc3=O)C2)no1 (stereo not drawn),cytotoxicity at 70.5 h,-9.54%
N#Cc1ccccc1C(=O)N1CCC2(CC(=O)NC2=O)C1 (stereo not drawn),cytotoxicity at 70.5 h,15.7%
CN1CC(c2ccccc2)CC12CCN(C(=O)c1ccncc1)CC2 (stereo not drawn),cytotoxicity at 70.5 h,-2.51%
CC(C)NC(=O)c1nc2c(s1)CCCN2Cc1ccccc1,cytotoxicity at 70.5 h,-6.15%
Cn1ccnc1CN1CCC2(CC1)CN(c1cncnc1)C(=O)CO2,cytotoxicity at 70.5 h,-3.27%
CN(Cc1ccc(C#N)cc1)c1ncc(C(N)=O)cc1Cl,cytotoxicity at 70.5 h,-7.36%
O=C(CC1CC1)N[C@@H]1CN(Cc2nccs2)C[C@@H]2CCCO[C@@H]21,cytotoxicity at 70.5 h,-2.11%
Fc1ccc(CC2CCN(Cc3cscn3)CC2)cc1,cytotoxicity at 70.5 h,-14.2%
Cn1cc(CCNC(=O)CCc2ccc3c(c2)OCO3)cn1,cytotoxicity at 70.5 h,-8.33%
CC(=O)N1CC[C@@]2(O)CCCC[C@H]2[C@@H]1c1ccc2c(c1)OCO2,cytotoxicity at 70.5 h,-1.93%
CC(C)NC(=O)N1CCN(CCn2cccn2)c2ncccc2C1,cytotoxicity at 70.5 h,-2.7%
CC(C)c1nc(CN2CCC(c3ccnn3CCO)CC2)no1,cytotoxicity at 70.5 h,19.5%
Cc1nc(CC(=O)N2CCCCC2Cn2cccn2)cs1 (stereo not drawn),cytotoxicity at 70.5 h,25.2%
Cc1cc(C(=O)Nc2cccn(Cc3ccc(F)cc3)c2=O)no1,cytotoxicity at 70.5 h,0.798%
CN1C(=O)c2cccc(NC(=O)c3ccc4c(c3)OCCO4)c2C1=O,cytotoxicity at 70.5 h,21.1%
COC(=O)CCCn1ccnc1-c1ccccc1,cytotoxicity at 70.5 h,-3.23%
COc1ccc(CNC(=O)c2cc3c(nc2O)CCC(C)C3)cc1 (stereo not drawn),cytotoxicity at 70.5 h,-8.97%
COc1ccc(N2CCN(C(=O)Cn3nc(C)c(Cl)c3C)CC2)cc1,cytotoxicity at 70.5 h,4.1%
O=C(CN1CCOc2ccccc2C1)NCc1cc2n(n1)CCNC2,cytotoxicity at 70.5 h,-2.02%
CCC(CC)c1cc(CNC(=O)N2CCOC(C)C2)on1 (stereo not drawn),cytotoxicity at 70.5 h,-9.44%
CC(C)Oc1ncccc1CNC(=O)N1CCC1,cytotoxicity at 70.5 h,-7.74%
CCCn1cc(C(=O)NC(CC(=O)O)c2ccccc2F)c(C)n1 (stereo not drawn),cytotoxicity at 70.5 h,6.87%
Cc1cnc(C(=O)N2CCC3(CCN3Cc3ccc(F)cc3)C2)cn1 (stereo not drawn),cytotoxicity at 70.5 h,-0.513%
CN1CCc2nc3cc(C(=O)NCc4cccs4)ccc3c(=O)n2CC1,cytotoxicity at 70.5 h,-2.15%
Cc1cc(C2CCCN(C(=O)COc3ccccc3F)C2)n[nH]1 (stereo not drawn),cytotoxicity at 70.5 h,12.5%
CN(C)CCO[C@H]1CN(CC2CC2)[C@@H]2CCCO[C@H]12,cytotoxicity at 70.5 h,11.6%
CCn1ccnc1CN1CCN(Cc2cccc(C#N)c2)CC1,cytotoxicity at 70.5 h,21.4%
C[C@@H]1C[C@H]2CN(C(=O)c3cccc4c3OCCO4)C[C@H]2O1,cytotoxicity at 70.5 h,-8.32%
CCn1c(C)nnc1SCCNc1nc(C)nc2ncccc12,cytotoxicity at 70.5 h,-15.7%
CC(c1ncc(-c2ccccc2)o1)N1CCN(C(=O)N(C)C)CC1 (stereo not drawn),cytotoxicity at 70.5 h,-2.55%
O[C@H]1COCCN(Cc2cccc3c2OCO3)C1,cytotoxicity at 70.5 h,-4.2%
CN(Cc1nc(Cc2cccc(F)c2)no1)C1CCOCC1,cytotoxicity at 70.5 h,-13.9%
CCN(Cc1nc(C2CC2)no1)Cc1ccc(C#N)cc1F,cytotoxicity at 70.5 h,-3.69%
CC(Cn1cccn1)NCc1csc(-c2ncccn2)n1 (stereo not drawn),cytotoxicity at 70.5 h,3.56%
CC(C)c1nccc(C2CC(=O)Nc3n[nH]c(C4CCC4)c32)n1 (stereo not drawn),cytotoxicity at 70.5 h,2.19%
O=C1CCCN1Cc1nnn2c1CN(c1cccnc1)CCC2,cytotoxicity at 70.5 h,-8.56%
NC(=O)CCC1CCCN(c2ncnc3c2Cc2ccccc2OC3)C1 (stereo not drawn),cytotoxicity at 70.5 h,-4.64%
CN(C)c1cc(C(=O)N2CCCCCC2)ccn1,cytotoxicity at 70.5 h,-8.97%
CCC1=N[C@@]2(CC[C@@H]3CN(C(=O)NCc4ccccc4)C[C@@H]32)C(=O)N1,cytotoxicity at 70.5 h,-7.28%
Cc1ccc(C(NC(=O)CC2CCN(C(C)C)CC2)C(=O)O)cc1 (stereo not drawn),cytotoxicity at 70.5 h,-3.16%
Cc1ccnc(N2CCC(OCCN3CCCCC3)C2)n1 (stereo not drawn),cytotoxicity at 70.5 h,-8.76%
CO[C@@H]1CCN(S(=O)(=O)c2cn(C)cn2)[C@H]1Cc1ccncc1,cytotoxicity at 70.5 h,4.82%
CCc1noc(CN2CCN(Cc3cccs3)CC2)n1,cytotoxicity at 70.5 h,-10%
O=C(c1ccncc1)N1CCC2(COc3ncccc3S(=O)(=O)N2)C1 (stereo not drawn),cytotoxicity at 70.5 h,-5.87%
COCCOC1CCN(C(C(=O)O)c2c(Cl)cccc2OC)CC1 (stereo not drawn),cytotoxicity at 70.5 h,-10.5%
Cn1cc(C2COC3(CCN(C(=O)c4cccc(O)c4)CC3)C2)cn1 (stereo not drawn),cytotoxicity at 70.5 h,-11.7%
O=C(NCc1csc(Br)c1)c1cnccn1,cytotoxicity at 70.5 h,-13.5%
COc1cc(CN(C)C(=O)NCCC(=O)NC2CCCC2)ccc1SC,cytotoxicity at 70.5 h,14.4%
CCC(C)NC(=O)c1ccc(-c2ccco2)[nH]c1=O (stereo not drawn),cytotoxicity at 70.5 h,-5.06%
CNC(=O)NC(=O)C(C)N1CCN(c2ccc(C#N)cc2F)CC1 (stereo not drawn),cytotoxicity at 70.5 h,-12.9%
CC(C)CN1CCC(C(=O)NCCNC(=O)c2ccccc2)CC1,cytotoxicity at 70.5 h,-4.76%
CCn1cc2c(n1)C(COCC1CC1)CN(C(=O)c1ccco1)C2 (stereo not drawn),cytotoxicity at 70.5 h,-10.5%
CNc1cc(-c2nc(CCN3CCCC3=O)no2)ccn1,cytotoxicity at 70.5 h,12.1%
N#Cc1ccc(CN2CCN(C(=O)C3CCC3)[C@@H]3CS(=O)(=O)C[C@@H]32)cc1,cytotoxicity at 70.5 h,-6.79%
Cc1ccccc1NS(=O)(=O)c1cc2c(c(C(=O)O)c1)OCCO2,cytotoxicity at 70.5 h,6.41%
CC1CCc2nn(CCNC(=O)Cc3ccc(F)cc3)c(=O)cc2C1 (stereo not drawn),cytotoxicity at 70.5 h,-4.91%
O=C([C@@H]1CCO[C@@H]2CCN(Cc3ccc(F)cc3)C[C@H]21)N1CCCCO1,cytotoxicity at 70.5 h,-24.4%
Cn1cc(CN2C[C@H]3CN(c4cncnc4)C(=O)[C@H]3C2)cn1,cytotoxicity at 70.5 h,-2.54%
CCn1cc(CNCc2ccc(C(=O)OC)cc2)c(C)n1,cytotoxicity at 70.5 h,-0.911%
CCOc1ncccc1NC(=O)NC1CCCN(c2ncccn2)C1 (stereo not drawn),cytotoxicity at 70.5 h,-2.86%
CC(=O)NCCc1ccc(S(=O)(=O)Nc2ccc(C)c(F)c2)s1,cytotoxicity at 70.5 h,-5.64%
NC(=O)c1cccc(CC2CCN(C(=O)CCc3cccc(F)c3)C2)c1 (stereo not drawn),cytotoxicity at 70.5 h,-8.51%
COCC(C)NC(=O)c1cc(C)n(-c2cccc(OC)c2)c1C (stereo not drawn),cytotoxicity at 70.5 h,-5.2%
Cc1noc(C(C)N2CCN(CC(=O)N3CCOCC3)CC2)n1 (stereo not drawn),cytotoxicity at 70.5 h,24%
Cc1cccc(CN2CCC3(CC2)CC(Oc2cccnc2)C3)n1,cytotoxicity at 70.5 h,-0.691%
CNC(=O)c1nc(CN2CCOC(Cc3ccc(F)cc3)C2)no1 (stereo not drawn),cytotoxicity at 70.5 h,-15.2%
Cn1cc(C(=O)CC2CCCN2C(=O)c2cncc3ccccc23)cn1 (stereo not drawn),cytotoxicity at 70.5 h,3.04%
CN1CCN(c2ccccc2CNC(=O)Cc2ccccc2F)CC1,cytotoxicity at 70.5 h,-5.79%
CCOCC1CN(C(=O)c2cnoc2C)Cc2cn(C)nc21 (stereo not drawn),cytotoxicity at 70.5 h,-5.33%
COc1ccc(-n2nnc(C(=O)NCC3CCCCC3)n2)cc1,cytotoxicity at 70.5 h,-12.2%
COc1c(CNCCNC(=O)c2ccc(C)c(F)c2)c(C)nn1C,cytotoxicity at 70.5 h,-4.84%
Cc1nccc(N[C@H]2CN(CC(C)(C)N3CCOCC3)C[C@@H]2C2CC2)n1,cytotoxicity at 70.5 h,20.2%
COCCN1CCN(Cc2nccs2)[C@H]2CS(=O)(=O)C[C@H]21,cytotoxicity at 70.5 h,-2.69%
COCCNc1ccc(CNC(=O)Nc2cn[nH]c2)cc1,cytotoxicity at 70.5 h,-16.6%
Cc1noc(C)c1-c1cncc(C2CCCN2Cc2ncc[nH]2)n1 (stereo not drawn),cytotoxicity at 70.5 h,16.2%
CC(C)(C)C(O)CN1CCN(C(=O)c2cccc3ncccc23)CC1 (stereo not drawn),cytotoxicity at 70.5 h,20.7%
CC(C)(NC(=O)Nc1cnn(CC2CCCO2)c1)c1nccs1 (stereo not drawn),cytotoxicity at 70.5 h,-6.03%
CNS(=O)(=O)c1ccc(CNC(=O)N2CCOC(C)C2)cc1 (stereo not drawn),cytotoxicity at 70.5 h,10.2%
CC(C)[C@H]1COC(=O)N1Cc1noc(-c2ccccc2)n1,cytotoxicity at 70.5 h,-7.59%
COc1cccc2c1CCC2NC(=O)NCc1csc(N(C)C)n1 (stereo not drawn),cytotoxicity at 70.5 h,9.68%
O=C(NCCC1CCCCO1)c1coc(COc2ccc(F)cc2)n1 (stereo not drawn),cytotoxicity at 70.5 h,-6.58%
c1cc(N2CCC3(COCc4cnc(NCC5CC5)nc43)C2)ncn1 (stereo not drawn),cytotoxicity at 70.5 h,32.2%
Cn1c(=O)[nH]c(=O)c2c1nc1n2CC(c2ccc(Br)cc2)O1 (stereo not drawn),cytotoxicity at 70.5 h,-3.88%
Cc1nccn1C1(C(=O)O)CCN(Cc2ccc3occc3c2)CC1,cytotoxicity at 70.5 h,-7.56%
c1ccc2c(c1)nc1n2[C@@H](CNCc2nccs2)COC1,cytotoxicity at 70.5 h,-19.6%
COc1ccccc1NC(=O)NCc1nnc(SC)n1C,cytotoxicity at 70.5 h,-5.92%
CCc1nnc(C(C)N2CCN(CCC(C)(C)C)CC2)o1 (stereo not drawn),cytotoxicity at 70.5 h,-7.09%
CCSCCC(=O)NS(=O)(=O)c1ccc2c(c1)OCCO2,cytotoxicity at 70.5 h,-13.7%
Cc1ccc(Cl)cc1N1CCC(CNC(=O)CCn2ccnc2)C1 (stereo not drawn),cytotoxicity at 70.5 h,-10.1%
CCOCCN1C[C@H](c2cccc(OC)c2)[C@@H](N)C1,cytotoxicity at 70.5 h,-4.15%
Cc1ccnc(CNC(=O)C2CC(=O)N(CCN(C)C)C2)c1 (stereo not drawn),cytotoxicity at 70.5 h,-7.06%
COc1cc(N2CC[C@H](O)[C@@H]2Cc2cnn(C)c2)ncn1,cytotoxicity at 70.5 h,-13.3%
c1ncc2c(n1)CN(Cc1nc(-c3ccsc3)no1)CC2,cytotoxicity at 70.5 h,-14.7%
CCNC(=O)NC[C@H]1Cn2c(-c3ccccc3)cnc2CO1,cytotoxicity at 70.5 h,-3.79%
COCCCNC(=O)CN(C)C(=O)c1ccc(-n2cccc2)cc1O,cytotoxicity at 70.5 h,-0.626%
Cc1ncsc1CN1CCO[C@H]2[C@H](Oc3ccccn3)CC[C@@H]21,cytotoxicity at 70.5 h,-1.48%
COc1cccc(N2CCC(N3CCOC(C(F)(F)F)C3)CC2)c1 (stereo not drawn),cytotoxicity at 70.5 h,-18.1%
Cc1csc(CN2CCC[C@]3(C[C@@H](OCC4CC4)CO3)C2)n1,cytotoxicity at 70.5 h,24.4%
CCCn1cc(NC(=O)c2ccc(N(C)CC)cc2)ccc1=O,cytotoxicity at 70.5 h,-7.67%
CCc1noc(CN2CCOC3(CCCC3)C2)n1,cytotoxicity at 70.5 h,-2.11%
O=C(C1=CCCC1)N1CCO[C@H]2[C@@H](OCC3CC3)CC[C@@H]21,cytotoxicity at 70.5 h,-17.4%
Cc1nn(C)c(C)c1NC(=O)CN1CCCC1c1c(C)nn(C)c1C (stereo not drawn),cytotoxicity at 70.5 h,-3.45%
